Our source for the phosphorylation of glucose, Km and kcat values is publication PMC9550789, “Identification and biochemical characterization of a novel N-acetylglucosamine kinase in Saccharomyces cerevisiae” (Scientific Reports, 2022).

In one data set the target is T1, Glk1 (Saccharomyces cerevisiae, UniProt P17709).
T1 sequence (P17709 2-500): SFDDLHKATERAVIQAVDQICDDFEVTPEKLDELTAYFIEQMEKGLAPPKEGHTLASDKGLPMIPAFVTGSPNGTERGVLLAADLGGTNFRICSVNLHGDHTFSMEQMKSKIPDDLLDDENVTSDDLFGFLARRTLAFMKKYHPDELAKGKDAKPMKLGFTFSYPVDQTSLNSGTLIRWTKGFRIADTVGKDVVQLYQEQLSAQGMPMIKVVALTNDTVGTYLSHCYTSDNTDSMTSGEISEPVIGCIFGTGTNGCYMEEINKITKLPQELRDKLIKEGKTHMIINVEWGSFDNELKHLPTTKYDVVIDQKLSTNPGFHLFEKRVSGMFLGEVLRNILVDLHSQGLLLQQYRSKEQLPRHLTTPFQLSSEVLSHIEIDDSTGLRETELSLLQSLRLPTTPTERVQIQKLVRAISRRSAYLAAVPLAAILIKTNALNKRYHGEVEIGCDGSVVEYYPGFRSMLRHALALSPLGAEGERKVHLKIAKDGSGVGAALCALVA
Put plainly: phosphorylation of glucose. The data set is classed as biochemical. The settings on record: sugar phosphorylation with ATP; details in supplement.

A further data set concerns the target T2, Hxk2 (Saccharomyces cerevisiae, UniProt P04807).
T2 sequence (P04807 2-486): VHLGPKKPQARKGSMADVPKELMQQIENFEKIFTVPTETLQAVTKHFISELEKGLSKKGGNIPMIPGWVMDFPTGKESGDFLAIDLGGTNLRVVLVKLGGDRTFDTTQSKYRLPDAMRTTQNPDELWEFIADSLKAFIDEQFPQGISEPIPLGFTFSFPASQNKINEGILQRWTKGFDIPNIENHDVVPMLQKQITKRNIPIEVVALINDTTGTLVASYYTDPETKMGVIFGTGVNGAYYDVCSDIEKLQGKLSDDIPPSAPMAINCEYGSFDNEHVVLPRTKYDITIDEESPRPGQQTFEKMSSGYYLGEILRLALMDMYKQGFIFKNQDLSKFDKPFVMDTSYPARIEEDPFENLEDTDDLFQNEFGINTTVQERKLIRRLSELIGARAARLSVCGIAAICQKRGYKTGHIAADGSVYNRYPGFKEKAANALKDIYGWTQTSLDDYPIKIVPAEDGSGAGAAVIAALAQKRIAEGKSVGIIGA
Put plainly: phosphorylation of glucose. The settings on record: sugar phosphorylation with ATP; details in supplement. The data set is classed as biochemical.

The target of another data set is T3, Hxk1 (Saccharomyces cerevisiae, UniProt P04806).
T3 sequence (P04806 1-485): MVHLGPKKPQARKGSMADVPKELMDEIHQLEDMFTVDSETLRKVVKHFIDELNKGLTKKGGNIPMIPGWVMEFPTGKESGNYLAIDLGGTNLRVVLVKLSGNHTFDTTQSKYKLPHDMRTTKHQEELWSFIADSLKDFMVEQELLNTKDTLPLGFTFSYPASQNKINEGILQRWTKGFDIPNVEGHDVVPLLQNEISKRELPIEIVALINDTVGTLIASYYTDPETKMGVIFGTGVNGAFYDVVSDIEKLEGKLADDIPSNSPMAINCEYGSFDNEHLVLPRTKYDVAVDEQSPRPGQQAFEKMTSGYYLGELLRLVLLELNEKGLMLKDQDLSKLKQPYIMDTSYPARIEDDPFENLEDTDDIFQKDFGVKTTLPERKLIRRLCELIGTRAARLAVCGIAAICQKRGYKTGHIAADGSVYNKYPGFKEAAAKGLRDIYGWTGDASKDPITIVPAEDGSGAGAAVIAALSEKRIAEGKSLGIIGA
The data set can be described thus: phosphorylation of glucose. The data set is classed as biochemical. The settings on record: sugar phosphorylation with ATP; details in supplement.

The target of another data set is T4, Emi2 (Saccharomyces cerevisiae, UniProt Q04409).
T4 sequence (Q04409 2-500): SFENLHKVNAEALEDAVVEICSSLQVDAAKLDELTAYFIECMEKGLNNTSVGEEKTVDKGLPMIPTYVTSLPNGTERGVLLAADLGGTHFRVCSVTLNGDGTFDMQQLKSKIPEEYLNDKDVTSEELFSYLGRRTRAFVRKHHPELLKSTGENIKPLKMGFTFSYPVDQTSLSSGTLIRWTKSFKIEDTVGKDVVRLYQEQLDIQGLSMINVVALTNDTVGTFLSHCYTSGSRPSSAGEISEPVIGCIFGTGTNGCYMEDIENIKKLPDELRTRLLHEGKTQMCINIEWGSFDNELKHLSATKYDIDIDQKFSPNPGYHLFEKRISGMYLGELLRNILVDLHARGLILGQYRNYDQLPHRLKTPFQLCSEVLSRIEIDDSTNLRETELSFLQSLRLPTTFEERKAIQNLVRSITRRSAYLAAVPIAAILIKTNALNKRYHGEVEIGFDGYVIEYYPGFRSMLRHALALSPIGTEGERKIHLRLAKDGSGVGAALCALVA
Put plainly: phosphorylation of glucose. The settings on record: sugar phosphorylation with ATP; details in supplement. The data set is classed as biochemical.

Substrate in data set [1]: Nc1ncnc2c1ncn2[C@@H]1O[C@H](COP(=O)(O)OP(=O)(O)OP(=O)(O)O)[C@@H](O)[C@H]1O
Put plainly: pyruvate kinase / lactate dehydrogenase coupled assay, ADP formation. The data set is classed as biochemical, Saccharomyces cerevisiae. The settings on record: GlcNAc as sugar substrate (concentration not given).

For the molecule `OC[C@H]1OC(O)[C@H](O)[C@@H](O)[C@@H]1O` (stereo partly drawn) [glucose], the phosphorylation of glucose entry on Glk1, at Hxk2, on Hxk1 and on Emi2 was “all these hexokinases clearly exhibited the activity for Glc” each time.

B1: Ngk1 (YLR446Wp) (Saccharomyces cerevisiae S288C) (protein)
chain: MTIESTLARELESLILPADSIVNVVDQFQEELLSRLQTNTISMLPQCLVPDKRSRWNPEDKILTIDFGGTRLKFAIISLPQIVIEYNDAFELTYNIVDSNFFNQIIYTICTRLAANGYIKKKNESSEASKFFVSVTFSFPLNPEGEVVAMGKGFVMTDTLQGSTVKQLIQSSFHRIISENIEEFFCTMNVCHVINDAIAVSLTSKFICENDSISLIIGTGTNACFEVPYGYLPPFKRDALRETLPSSYNKETLNFKHVLINSEIGFIGKNVIALQPFDIHGAISYEMPLECVTSGKWLPLSLKNILLQYNIIPKNFPVEFNGELVCQLAEDCTNAWFENEHYALICQIARLLIKRAAFYVAAIVQAIDIITGCKNYNFIHIGYVGSFLHNSNFYREQIKYYSSIHIKLQFLNHSNLLGAAIATYLNKSDNQVQ
notes: full-length ORF, 433 residues, about 50 kDa predicted, N-terminal His6-tag (pCold II), E. coli BL21 (DE3), HisTrap purified; tag removal not mentioned
In the case of B1, in data set [1], the Km amounted to 1200 µM and the kcat amounted to 3.4 s⁻¹.

As usually defined, the Km is the concentration of substrate that gives half-maximal velocity. By kcat is commonly meant the maximal rate divided by the concentration of active sites.
